Assay results from publication PMC7587962, “Evaluation of Cytotoxicity and α-Glucosidase Inhibitory Activity of Amide and Polyamino-Derivatives of Lupane Triterpenoids” (Molecules, 2020).

Key:
Yeast α-Glucosidase = experiment: Yeast α-glucosidase activity assay; type: biochemical, S. cerevisiae; settings: pH 6.8, 37 °C, p-nitrophenyl-α-D-glucopyranoside 1 mM; read-out: Yeast α-Glucosidase, IC50 ± SE
Method: Taken together, these considerations prompted us to evaluate a series of lupanes with amide function or polyamine chain 11, 12, 16, 18, and 22–26 for α-glucosidase inhibition. Initially, they were screened against α-glucosidase of S. cerevisiae as an accessible and high-throughput model. Confirmatory experiments were performed on isolated rough endoplasmic reticulum vesicles from rat liver, which contain neutral α-glucosidases I and II in a membrane-bound form.
In a 96-well flat transparent plate, the 0.12 U/mL enzyme solution (EC 3.2.1.20, expressed in S. cerevisiae, Sigma #G0660, St. Louis, MO, USA) was incubated with test compounds in 67 mM PBS (pH 6.8) at 37 °C for 5 min. Then, p-nitrophenyl-α-D-glucopyranoside (Sigma #N1377, St. Louis, MO, USA) was added to 1 mM final concentration and an increase in absorbance was recorded for 15 min at 405 nm wavelength with Infinite M200 PRO microplate reader (Tecan, Austria). Test compounds were dissolved in DMSO and diluted to the desired concentration in 67 mM PBS (pH 6.8) supplemented with 0.01% Tween 80 to avoid aggregation. Final DMSO concentration was <0.25% in sample wells, and it was also introduced in control and blank wells. […] Due to the absence of normal distribution of data, a Mann–Whitney U-test was used to determine statistical significance versus enzyme control using GraphPad Prism 8.0.1.

CCRF-CEM = system: CCRF-CEM; parameters: method as in PMID 25405285; settings: standard drugs used by NCI as control; cited from earlier work
MOLT-4 = system: MOLT-4; parameters: method as in PMID 25405285; settings: standard drugs used by NCI as control; cited from earlier work
RPMI-8226 = system: RPMI-8226; parameters: method as in PMID 25405285; settings: standard drugs used by NCI as control; cited from earlier work
A549/ATCC = system: A549/ATCC; parameters: method as in PMID 25405285; settings: standard drugs used by NCI as control; cited from earlier work
EKVX = system: EKVX; parameters: method as in PMID 25405285; settings: standard drugs used by NCI as control; cited from earlier work
HOP-92 = system: HOP-92; parameters: method as in PMID 25405285; settings: standard drugs used by NCI as control; cited from earlier work
NCI-H23 = system: NCI-H23; parameters: method as in PMID 25405285; settings: standard drugs used by NCI as control; cited from earlier work
COLO 205 = system: COLO 205; parameters: method as in PMID 25405285; settings: standard drugs used by NCI as control; cited from earlier work
HCC-2998 = system: HCC-2998; parameters: method as in PMID 25405285; settings: standard drugs used by NCI as control; cited from earlier work
HCT-116 = system: HCT-116; parameters: method as in PMID 25405285; settings: standard drugs used by NCI as control; cited from earlier work
HCT-15 = system: HCT-15; parameters: method as in PMID 25405285; settings: standard drugs used by NCI as control; cited from earlier work
HT29 = system: HT29; parameters: method as in PMID 25405285; settings: standard drugs used by NCI as control; cited from earlier work
SW-620 = system: SW-620; parameters: method as in PMID 25405285; settings: standard drugs used by NCI as control; cited from earlier work
SF-295 = system: SF-295; parameters: method as in PMID 25405285; settings: standard drugs used by NCI as control; cited from earlier work
LOX IMVI = system: LOX IMVI; parameters: method as in PMID 25405285; settings: standard drugs used by NCI as control; cited from earlier work
MALME-3M = system: MALME-3M; parameters: method as in PMID 25405285; settings: standard drugs used by NCI as control; cited from earlier work
MDA-MB-435 = system: MDA-MB-435; parameters: method as in PMID 25405285; settings: standard drugs used by NCI as control; cited from earlier work
SK-MEL-28 = system: SK-MEL-28; parameters: method as in PMID 25405285; settings: standard drugs used by NCI as control; cited from earlier work
SK-MEL-5 = system: SK-MEL-5; parameters: method as in PMID 25405285; settings: standard drugs used by NCI as control; cited from earlier work
UACC-257 = system: UACC-257; parameters: method as in PMID 25405285; settings: standard drugs used by NCI as control; cited from earlier work
UACC-62 = system: UACC-62; parameters: method as in PMID 25405285; settings: standard drugs used by NCI as control; cited from earlier work
IGROV1 = system: IGROV1; parameters: method as in PMID 25405285; settings: standard drugs used by NCI as control; cited from earlier work
OVCAR-4 = system: OVCAR-4; parameters: method as in PMID 25405285; settings: standard drugs used by NCI as control; cited from earlier work
OVCAR-5 = system: OVCAR-5; parameters: method as in PMID 25405285; settings: standard drugs used by NCI as control; cited from earlier work
786-0 = system: 786-0; parameters: method as in PMID 25405285; settings: standard drugs used by NCI as control; cited from earlier work
ACHN = system: ACHN; parameters: method as in PMID 25405285; settings: standard drugs used by NCI as control; cited from earlier work
SN12C = system: SN12C; parameters: method as in PMID 25405285; settings: standard drugs used by NCI as control; cited from earlier work
PC-3 = system: PC-3; parameters: method as in PMID 25405285; settings: standard drugs used by NCI as control; cited from earlier work
DU-145 = system: DU-145; parameters: method as in PMID 25405285; settings: standard drugs used by NCI as control; cited from earlier work
MCF7 = system: MCF7; parameters: method as in PMID 25405285; settings: standard drugs used by NCI as control; cited from earlier work
HS 578T = system: HS 578T; parameters: method as in PMID 25405285; settings: standard drugs used by NCI as control; cited from earlier work
BT-549 = system: BT-549; parameters: method as in PMID 25405285; settings: standard drugs used by NCI as control; cited from earlier work
T-47D = system: T-47D; parameters: method as in PMID 25405285; settings: standard drugs used by NCI as control; cited from earlier work
MDA-MB-468 = system: MDA-MB-468; parameters: method as in PMID 25405285; settings: standard drugs used by NCI as control; cited from earlier work

C=C(C)[C@@H]1CC[C@]2(C(=O)NCCNCCNCCN)CC[C@]3(C)[C@H](CC[C@@H]4[C@@]5(C)CCC(=O)C(C)(C)[C@@H]5CC[C@]43C)[C@@H]12 [Compound 11]
IC50 (Yeast α-Glucosidase): 4840 ± 1020 nM

COc1cccc2c1C(=O)c1c(O)c3c(c(O)c1C2=O)C[C@@](O)(C(=O)CO)C[C@@H]3O[C@H]1C[C@H](N)[C@H](O)[C@H](C)O1 [DRB, doxorubicin]
GI50 (CCRF-CEM): 80 nM | GI50 (MOLT-4): 30 nM | GI50 (RPMI-8226): 80 nM | GI50 (A549/ATCC): 60 nM | GI50 (EKVX): 410 nM | GI50 (HOP-92): 100 nM | GI50 (NCI-H23): 150 nM | GI50 (COLO 205): 180 nM | GI50 (HCC-2998): 260 nM | GI50 (HCT-116): 80 nM | GI50 (HCT-15): 6460 nM | GI50 (HT29): 120 nM | GI50 (SW-620): 90 nM | GI50 (SF-295): 100 nM | GI50 (LOX IMVI): 70 nM | GI50 (MALME-3M): 120 nM | GI50 (MDA-MB-435): 250 nM | GI50 (SK-MEL-28): 210 nM | GI50 (SK-MEL-5): 80 nM | GI50 (UACC-257): 140 nM | GI50 (UACC-62): 120 nM | GI50 (IGROV1): 170 nM | GI50 (OVCAR-4): 370 nM | GI50 (OVCAR-5): 410 nM | GI50 (786-0): 130 nM | GI50 (ACHN): 80 nM | GI50 (SN12C): 70 nM | GI50 (PC-3): 320 nM | GI50 (DU-145): 110 nM | GI50 (MCF7): 30 nM | GI50 (HS 578T): 330 nM | GI50 (BT-549): 230 nM | GI50 (T-47D): 60 nM | GI50 (MDA-MB-468): 50 nM
